Source: patent US8765755B2, “N-containing heterocyclic compounds” (YM Biosciences Australia Pty Ltd, priority 2007, dated 2014)

Legend:
human JAK2 = target: T1, human JAK2 (Homo sapiens, UniProt O60674); test: JAK2 kinase enzyme assay (Alphascreen); format: biochemical; conditions: 80 or 625 um ATP
T1 construct: The kinase domain of human JAK2 was amplified; GST (N); made in house; host or cells: Sf9 (Spodoptera frugiperda) insect cells, baculovirus
Procedure: (§1) For screening purposes, compounds (in 100% DMSO) were warmed at 37 degrees for at least 20 minutes before use. A […] stock was initially made in assay buffer, where the final concentration of DMSO was 0.3%. The stocks were then diluted in 384 well Optiplates (Packard) where the final concentration of the compound was 5 μM.
The kinase domain of human JAK2 was amplified from U937mRNA using the polymerase chain reaction with the following primers: […]
The JAK2 PCR products were cloned into the pDest20 destination vector (Gibco). The JAK2 plasmid was then transformed into competent DH10Bac cells (Gibco), and the recombinant baculovirus was prepared via Sf9 insect cell transfection.
(§2) Baculovirus preparations from each of the JAK family members were infected into one litre of Sf9 (Spodoptera frugiperda) cells (Invitrogen) grown in SF900II serum free medium (Invitrogen) to a cell density of approximately 2×10^6 cells/ml. Cells were infected with virus at a cell culture to virus stock ratio of 20:1. Cells were harvested and lysed 48 hours post infection. The GST-tagged JAK kinase domains were purified by affinity chromatography on a GSH agarose column (Scientifix).
(§3) Kinase assays were performed in 384 well Optiplates (Packard) using an Alphascreen Protein Tyrosine KinaseP100 detection kit The compounds were pre-incubated with affinity purified PTK domain in the presence of phosphotyrosine assay buffer (10 mM HEPES, pH 7.5, 100 mM MgCl2, 25 mM NaCl, 200 mM sodium vanadate and 0.1% Tween 20) for 20 minutes. The compounds were then incubated with substrate in the presence of either 80 or 625 um ATP for 60 or 90 minutes. The substrate used was either susbtrate-1 with the sequence biotin-EGPWLEEEEEAYGWMDF-NH2 [SEQ. ID. NO. 13] (final concentration 111 μM) or susbtrate-2 substrate with the sequence biotin-EQEDEPEGDYFEWLEPE (final concentration 133 μM). Alphascreen phosphotyrosine acceptor beads followed by streptavidin donor beads at a concentration of 1/100 in stop buffer were added to each well under subdued light and incubated for 2-3 hours. The Alphascreen plates were read on a Packard Fusion Alpha instrument.

human JAK3 = target: T2, human JAK3 (Homo sapiens, UniProt P52333); test: JAK3 kinase enzyme assay (Alphascreen); format: biochemical; conditions: 80 or 625 um ATP
T2 construct: The kinase domain of human JAK3 was amplified; GST (N); made in house; host or cells: Sf9 (Spodoptera frugiperda) insect cells, baculovirus
T2 sequence (P52333 822-1111 limits assumed): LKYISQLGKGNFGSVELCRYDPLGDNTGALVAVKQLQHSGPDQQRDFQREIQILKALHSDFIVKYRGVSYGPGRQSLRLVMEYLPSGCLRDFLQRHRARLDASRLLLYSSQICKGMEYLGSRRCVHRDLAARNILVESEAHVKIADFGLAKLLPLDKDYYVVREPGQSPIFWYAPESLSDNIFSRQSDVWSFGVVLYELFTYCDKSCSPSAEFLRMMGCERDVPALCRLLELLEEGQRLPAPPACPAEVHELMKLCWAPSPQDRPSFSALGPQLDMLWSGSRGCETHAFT
Procedure: as §1
The kinase domain of human JAK3 was amplified from U937mRNA using the polymerase chain reaction with the following primers: […]
The JAK3 PCR products were cloned into the pDest20 destination expression vector (Gibco). The JAK3 plasmid was then transformed into competent DH10Bac cells (Gibco), and the recombinant baculovirus was prepared via Sf9 insect cell transfection.
as §2, §3

BafT_J2 = test: Cellular screening, BaF3 TEL:JAK2 cells (Alamar Blue); format: cell-based; conditions: Mus musculus, 40 hr incubation
Procedure: (§4) For screening purposes, compounds were diluted in 96 well plates at a concentration of 20 μM. Plates were warmed at 37° C. for 30 minutes before the assay was performed.
(§5) The coding region encompassing nucleotides 1-487 of TEL was amplified by PCR using the oligonucleotides 5TEL (5′-GGAGGATCCTGATCTCTCTCGCTGTGAGAC-3′) [SEQ ID NO 14] and 3TEL (5′-AGGC GTCGACTTCTTCTTCATGGTTCTG-3′) [SEQ ID NO 15] and U937 mRNA as a template. A BamHI restriction site was incorporated into the 5TEL primer, and a Sal I restriction site was incorporated into the 3TEL primer. The regions encompassing the kinase domain of JAK2 (nucleotides 2994-3914; JAK2F 5′-ACGC GTCGACGGTGCCTTTGAAGACCGGGAT-3′ [SEQ ID NO 16]; JAK2R 5′-ATAGTTTAGCGGCCGCTCAGAATGAAGGTCATTT-3′) [SEQ ID NO 17] and JAK3 (nucleotides 2520-3469; JAK3F 5′-GAAGTCGACTATGCCTGCCAAGACCCCACGATCTT-3′) [SEQ ID NO 18] were generated by PCR using Taq DNA polymerase (Gibco/BRL) and U937 mRNA as a template. A Sal I restriction site was incorporated into the forward primer of JAK2 and JAK3, a Not I site was incorporated into the JAK2 reverse primer and a Xba I site was added to the reverse primer of JAK3.
A TEL/Jak2 fusion was generated by digestion of the TELPCR product with BamH I/Sal I restriction enzymes, digestion of the JAK2 PCR product with Sal I/Not I restriction enzymes, followed by ligation and subcloning of the ligation product into the mammalian expression Vector pTRE 2 (Clontech), which was prepared by digestion with BamH I-Not I restriction enzymes, to give the TEL/Jak2 fusion plasmid pTELJAK2.
(§6) The growth factor dependant myelomonocytic cell line BaF3 bearing the pTET-off plasmid (Clontech) was transfected with either pTELJAK2 or pTELJAK3, and the transfected cells were selected for growth-factor independent cell growth. The BaF3 wild-type cells were cultured in DMEM containing 10% FCS, 10% WEHI 3B conditioned medium. The BaF3 TELJAK cells ([…]) were cultured in DMEM 10% Tet-System Approved FBS (without WEHI 3B conditioned medium).
(§7) Cell suspensions were prepared by harvesting cells from culture. (the cells used in this test were in late log phase growth with high viability.) Cells were diluted in the appropriate growth medium, as described above, to 1.1× final concentration (from 50,000 cell/mL to 200,000 cell/mL, depending on cell line).
(§8) Compounds to be tested were added (10 μL, 10× final concentration) to a flat bottomed 96-well plate. The cellular suspension (90 μL per well) was then added, and the plate incubated for 40 hr at 37° C., 5% CO2. Alamar Blue 10 μL per well was added and the plates returned to the incubator for a further 4-6 hours. The plates were then read at 544 nm.

BAF3wt = test: Cellular screening, BaF3 wild-type cells (Alamar Blue); format: cell-based; conditions: Mus musculus, 40 hr incubation
Procedure: as §4, §6, §7, §8

BafT_J3 = test: Cellular screening, BaF3 TEL:JAK3 cells (Alamar Blue); format: cell-based; conditions: Mus musculus, 40 hr incubation
Procedure: as §4, §5
The TEL/Jak3 fusion was prepared by ligation of the JAK3 Sal I/Not I cleaved kinase domain PCR product with the BamH I/Sal I restriction digested TEL product, followed by ligation of the ligation product into the BamH I/Not I digested pTRE2, to give the TEL/Jak3 fusion plasmid pTELJAK3.
as §6, §7, §8

CTLL2 = test: Cellular screening, CTLL2 cells (Alamar Blue); format: cell-based; conditions: Mus musculus, CTLL-2, 40 hr incubation
Procedure: as §4, §7, §8

T1 sequence (O60674 849-1124 limits assumed): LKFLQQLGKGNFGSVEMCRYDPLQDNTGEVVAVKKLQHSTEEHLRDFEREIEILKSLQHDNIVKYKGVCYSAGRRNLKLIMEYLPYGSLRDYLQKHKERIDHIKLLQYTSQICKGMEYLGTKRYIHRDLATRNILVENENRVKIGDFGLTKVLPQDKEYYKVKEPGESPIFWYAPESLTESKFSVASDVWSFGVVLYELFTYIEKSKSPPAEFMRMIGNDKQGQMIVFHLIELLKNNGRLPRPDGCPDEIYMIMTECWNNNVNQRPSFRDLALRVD

Compound	IC50 (human JAK2) [nM]	IC50 (human JAK3) [nM]	IC50 (BafT_J2) [nM]	IC50 (BAF3wt) [nM]	IC50 (BafT_J3) [nM]	IC50 (CTLL2) [nM]
Nc1ccc(-c2csc3cnc(Nc4ccc(N5CCOCC5)cc4)nc23)cc1 [Compound 2, 7-(4-aminophenyl)-N-(4-morpholinophenyl)thieno[3,2-d]pyrimidin-2-amine]	< 100	< 100	< 1000	< 1000	< 1000	< 1000
C=CC(=O)Nc1ccc(-c2csc3cnc(Nc4ccc(N5CCOCC5)cc4)nc23)cc1 [Compound 3, N-(4-(2-(4-morpholinophenylamino)thieno[3,2-d]pyrimidin-7-yl)phenyl)acrylamide]	< 100	< 100	< 5000	< 5000	< 1000	< 1000
Nc1cccc(-c2csc3cnc(Nc4ccc(N5CCOCC5)cc4)nc23)c1 [Compound 4, 7-(3-aminophenyl)-N-(4-morpholinophenyl)thieno[3,2-d]pyrimidin-2-amine]	< 100	< 100	< 1000	< 1000	< 1000	< 1000
C=CC(=O)Nc1cccc(-c2csc3cnc(Nc4ccc(N5CCOCC5)cc4)nc23)c1 [Compound 5, N-(3-(2-(4-morpholinophenylamino)thieno[3,2-d]pyrimidin-7-yl)phenyl)acrylamide]	< 100	< 100	< 5000	< 1000	< 1000	< 1000
COc1cc(-c2csc3cnc(Nc4ccc(N5CCOCC5)cc4)nc23)ccc1N [Compound 10, 7-(4-amino-3-methoxyphenyl)-N-(4-morpholinophenyl)thieno[3,2-d]pyrimidin-2-amine]	< 100	< 100	< 1000	< 1000	< 1000	< 1000
CCc1ccccc1-c1csc2cnc(Nc3cccc(N)c3)nc12 [Compound 22, N1-(7-(2-ethylphenyl)thieno[3,2-d]pyrimidin-2-yl)benzene-1,3-diamine]	< 100	< 100	< 1000	< 5000	< 5000	< 1000
CCc1ccccc1-c1csc2cnc(Nc3ccc(N4CCOCC4)cc3)nc12 [Compound 29, 7-(2-ethylphenyl)-N-(4-morpholinophenyl)thieno[3,2-d]pyrimidin-2-amine]	< 100	< 100	< 1000	< 1000	< 1000	< 1000
CC(=O)Nc1cccc(-c2csc3cnc(Nc4ccc(N5CCOCC5)cc4)nc23)c1 [Compound 30, N-(3-(2-(4-morpholinophenylamino)thieno[3,2-d]pyrimidin-7-yl)phenyl)acetamide]	< 100	< 100	< 1000	< 1000	< 1000	< 5000
CS(=O)(=O)N(CC#N)c1ccc(-c2csc3cnc(Nc4ccc(N5CCOCC5)cc4)nc23)cc1 [Compound 32, N-(cyanomethyl)-N-(4-(2-(4-morpholinophenylamino)thieno[3,2-d]pyrimidin-7-yl)phenyl)methanesulfonamide]	< 100	< 100	< 1000	< 5000	< 1000	< 1000
Cn1cc(-c2ccc(NS(C)(=O)=O)cc2)c2nc(Nc3ccc(N4CCOCC4)cc3)ncc21 [Compound 35, N-(4-(5-methyl-2-(4-morpholinophenylamino)-5H-pyrrolo[3,2-d]pyrimidin-7-yl)phenyl)methanesulfonamide]	< 100	< 1000	< 5000	< 5000	< 20000	< 5000
CC(C)c1ccccc1-c1csc2cnc(Nc3ccc(N4CCOCC4)cc3)nc12 [Compound 37, 7-(2-isopropylphenyl)-N-(4-morpholinophenyl)thieno[3,2-d]pyrimidin-2-amine]	< 100	< 100	< 1000	< 1000	< 1000	< 1000
Nc1ccc(-c2csc3cnc(Nc4ccc(N5CCOCC5)cc4)nc23)cc1[N+](=O)[O-] [Compound 44, 7-(4-amino-3-nitrophenyl)-N-(4-morpholinophenyl)thieno[3,2-d]pyrimidin-2-amine]	< 100	< 100	< 1000	< 5000	< 5000	< 5000
COc1ncccc1-c1csc2cnc(Nc3ccc(N4CCOCC4)cc3)nc12 [Compound 45, 7-(2-methoxypyridin-3-yl)-N-(4-morpholinophenyl)thieno[3,2-d]pyrimidin-2-amine]	< 100	< 100	< 1000	< 1000	< 1000	< 1000
COc1ccc(Nc2ncc3scc(-c4cccnc4OC)c3n2)cc1OC [Compound 52, N-(3,4-dimethoxyphenyl)-7-(2-methoxypyridin-3-yl)thieno[3,2-d]pyrimidin-2-amine]	< 100	< 100	< 1000	< 1000	< 1000	< 1000
COc1ccc(-c2csc3cnc(Nc4ccc(OC)c(OC)c4)nc23)c(OC)n1 [Compound 55, N-(3,4-dimethoxyphenyl)-7-(2,6-dimethoxypyridin-3-yl)thieno[3,2-d]pyrimidin-2-amine]	< 100	< 100	< 5000	< 5000	< 5000	< 5000
